± gives the expanded uncertainty stated by the source.
Experiment: activity coefficient (dimensionless); of the first substance listed, at infinite dilution; xn = mol fraction of the nth substance listed
Conditions: 298.15 K; 101 kPa; Liquid; Chromatography; x1 = 0
`C=CCCCCC` [1-heptene] + CCCC[n+]1ccc(C)cc1.O=S(=O)([N-]S(=O)(=O)C(F)(F)F)C(F)(F)F gave an activity coefficient of 9.97 ± 0.68.
Work on `C#CCCCCC` [1-heptyne] + CCCC[n+]1ccc(C)cc1.O=S(=O)([N-]S(=O)(=O)C(F)(F)F)C(F)(F)F yielded an activity coefficient of 3.2 ± 0.22.
Compound `C#CCCCC` [1-hexyne] + CCCC[n+]1ccc(C)cc1.O=S(=O)([N-]S(=O)(=O)C(F)(F)F)C(F)(F)F has an activity coefficient of 2.37 ± 0.16.
Compound `C#CCCCCCC` [1-octyne] + CCCC[n+]1ccc(C)cc1.O=S(=O)([N-]S(=O)(=O)C(F)(F)F)C(F)(F)F has an activity coefficient of 4.43 ± 0.3.
`C=CCCC` [1-pentene] + CCCC[n+]1ccc(C)cc1.O=S(=O)([N-]S(=O)(=O)C(F)(F)F)C(F)(F)F gave an activity coefficient of 5.81 ± 0.4.
For `C#CCCC` [1-pentyne] + CCCC[n+]1ccc(C)cc1.O=S(=O)([N-]S(=O)(=O)C(F)(F)F)C(F)(F)F, the activity coefficient was 1.79 ± 0.12.
Compound `COC(C)(C)C` [2-methoxy-2-methylpropane] + CCCC[n+]1ccc(C)cc1.O=S(=O)([N-]S(=O)(=O)C(F)(F)F)C(F)(F)F has an activity coefficient of 1.97 ± 0.13.
`CC(C)=O` [acetone] + CCCC[n+]1ccc(C)cc1.O=S(=O)([N-]S(=O)(=O)C(F)(F)F)C(F)(F)F showed an activity coefficient of 0.398 ± 0.034.
`c1ccccc1` [benzene] + CCCC[n+]1ccc(C)cc1.O=S(=O)([N-]S(=O)(=O)C(F)(F)F)C(F)(F)F gave an activity coefficient of 0.683 ± 0.046.
`C1CCCCCC1` [cycloheptane] + CCCC[n+]1ccc(C)cc1.O=S(=O)([N-]S(=O)(=O)C(F)(F)F)C(F)(F)F showed an activity coefficient of 10.9 ± 0.7.
`C1CCCCC1` [cyclohexane] + CCCC[n+]1ccc(C)cc1.O=S(=O)([N-]S(=O)(=O)C(F)(F)F)C(F)(F)F showed an activity coefficient of 8.93 ± 0.61.
With `C1CCCCCCC1` [cyclooctane] + CCCC[n+]1ccc(C)cc1.O=S(=O)([N-]S(=O)(=O)C(F)(F)F)C(F)(F)F the activity coefficient was 13.9 ± 1.
`C1CCCC1` [cyclopentane] + CCCC[n+]1ccc(C)cc1.O=S(=O)([N-]S(=O)(=O)C(F)(F)F)C(F)(F)F gave an activity coefficient of 6.65 ± 0.45.
Compound `CCCCCCCCCC` [decane] + CCCC[n+]1ccc(C)cc1.O=S(=O)([N-]S(=O)(=O)C(F)(F)F)C(F)(F)F has an activity coefficient of 54.7 ± 3.7.
For `CCOCC` [diethyl ether] + CCCC[n+]1ccc(C)cc1.O=S(=O)([N-]S(=O)(=O)C(F)(F)F)C(F)(F)F, the activity coefficient was 2.07 ± 0.14.
With `CCCOCCC` [dipropyl ether] + CCCC[n+]1ccc(C)cc1.O=S(=O)([N-]S(=O)(=O)C(F)(F)F)C(F)(F)F the activity coefficient was 4.91 ± 0.33.
Compound `CCO` [ethanol] + CCCC[n+]1ccc(C)cc1.O=S(=O)([N-]S(=O)(=O)C(F)(F)F)C(F)(F)F has an activity coefficient of 1.91 ± 0.13.
With `CCCCCCC` [heptane] + CCCC[n+]1ccc(C)cc1.O=S(=O)([N-]S(=O)(=O)C(F)(F)F)C(F)(F)F the activity coefficient was 20.4 ± 1.4.
Compound `C=CCCCC` [hex-1-ene] + CCCC[n+]1ccc(C)cc1.O=S(=O)([N-]S(=O)(=O)C(F)(F)F)C(F)(F)F has an activity coefficient of 7.4 ± 0.5.
In the case of `CCCCCC` [hexane] + CCCC[n+]1ccc(C)cc1.O=S(=O)([N-]S(=O)(=O)C(F)(F)F)C(F)(F)F, the activity coefficient is reported as 15.4 ± 1.1.
For `CO` [methanol] + CCCC[n+]1ccc(C)cc1.O=S(=O)([N-]S(=O)(=O)C(F)(F)F)C(F)(F)F, the activity coefficient was 1.53 ± 0.1.
For `CCCCCCCCC` [nonane] + CCCC[n+]1ccc(C)cc1.O=S(=O)([N-]S(=O)(=O)C(F)(F)F)C(F)(F)F, the activity coefficient was 38.9 ± 2.7.

Same assay, conditions: 308.15 K; 101 kPa; Liquid; Chromatography; x1 = 0
`C=CCCCCC` [1-heptene] + CCCC[n+]1ccc(C)cc1.O=S(=O)([N-]S(=O)(=O)C(F)(F)F)C(F)(F)F gave an activity coefficient of 9.56 ± 0.65.
Compound `C#CCCCCC` [1-heptyne] + CCCC[n+]1ccc(C)cc1.O=S(=O)([N-]S(=O)(=O)C(F)(F)F)C(F)(F)F has an activity coefficient of 3.23 ± 0.22.
Compound `C#CCCCC` [1-hexyne] + CCCC[n+]1ccc(C)cc1.O=S(=O)([N-]S(=O)(=O)C(F)(F)F)C(F)(F)F has an activity coefficient of 2.39 ± 0.16.
Work on `C#CCCCCCC` [1-octyne] + CCCC[n+]1ccc(C)cc1.O=S(=O)([N-]S(=O)(=O)C(F)(F)F)C(F)(F)F yielded an activity coefficient of 4.42 ± 0.3.
`C=CCCC` [1-pentene] + CCCC[n+]1ccc(C)cc1.O=S(=O)([N-]S(=O)(=O)C(F)(F)F)C(F)(F)F showed an activity coefficient of 5.6 ± 0.38.
Compound `C#CCCC` [1-pentyne] + CCCC[n+]1ccc(C)cc1.O=S(=O)([N-]S(=O)(=O)C(F)(F)F)C(F)(F)F has an activity coefficient of 1.82 ± 0.12.
In the case of `COC(C)(C)C` [2-methoxy-2-methylpropane] + CCCC[n+]1ccc(C)cc1.O=S(=O)([N-]S(=O)(=O)C(F)(F)F)C(F)(F)F, the activity coefficient is reported as 2 ± 0.14.
For `CC(C)=O` [acetone] + CCCC[n+]1ccc(C)cc1.O=S(=O)([N-]S(=O)(=O)C(F)(F)F)C(F)(F)F, the activity coefficient was 0.406 ± 0.034.
`c1ccccc1` [benzene] + CCCC[n+]1ccc(C)cc1.O=S(=O)([N-]S(=O)(=O)C(F)(F)F)C(F)(F)F gave an activity coefficient of 0.702 ± 0.047.
Work on `C1CCCCCC1` [cycloheptane] + CCCC[n+]1ccc(C)cc1.O=S(=O)([N-]S(=O)(=O)C(F)(F)F)C(F)(F)F yielded an activity coefficient of 10.1 ± 0.7.
With `C1CCCCC1` [cyclohexane] + CCCC[n+]1ccc(C)cc1.O=S(=O)([N-]S(=O)(=O)C(F)(F)F)C(F)(F)F the activity coefficient was 8.34 ± 0.57.
Compound `C1CCCCCCC1` [cyclooctane] + CCCC[n+]1ccc(C)cc1.O=S(=O)([N-]S(=O)(=O)C(F)(F)F)C(F)(F)F has an activity coefficient of 12.9 ± 0.9.
Compound `C1CCCC1` [cyclopentane] + CCCC[n+]1ccc(C)cc1.O=S(=O)([N-]S(=O)(=O)C(F)(F)F)C(F)(F)F has an activity coefficient of 6.25 ± 0.43.
Work on `CCCCCCCCCC` [decane] + CCCC[n+]1ccc(C)cc1.O=S(=O)([N-]S(=O)(=O)C(F)(F)F)C(F)(F)F yielded an activity coefficient of 49.3 ± 3.4.
`CCOCC` [diethyl ether] + CCCC[n+]1ccc(C)cc1.O=S(=O)([N-]S(=O)(=O)C(F)(F)F)C(F)(F)F gave an activity coefficient of 2.08 ± 0.14.
For `CCCOCCC` [dipropyl ether] + CCCC[n+]1ccc(C)cc1.O=S(=O)([N-]S(=O)(=O)C(F)(F)F)C(F)(F)F, the activity coefficient was 4.81 ± 0.33.
`CCO` [ethanol] + CCCC[n+]1ccc(C)cc1.O=S(=O)([N-]S(=O)(=O)C(F)(F)F)C(F)(F)F gave an activity coefficient of 1.72 ± 0.12.
`CCCCCCC` [heptane] + CCCC[n+]1ccc(C)cc1.O=S(=O)([N-]S(=O)(=O)C(F)(F)F)C(F)(F)F showed an activity coefficient of 18.9 ± 1.3.
In the case of `C=CCCCC` [hex-1-ene] + CCCC[n+]1ccc(C)cc1.O=S(=O)([N-]S(=O)(=O)C(F)(F)F)C(F)(F)F, the activity coefficient is reported as 7.11 ± 0.48.
For `CCCCCC` [hexane] + CCCC[n+]1ccc(C)cc1.O=S(=O)([N-]S(=O)(=O)C(F)(F)F)C(F)(F)F, the activity coefficient was 14.5 ± 1.
Work on `CO` [methanol] + CCCC[n+]1ccc(C)cc1.O=S(=O)([N-]S(=O)(=O)C(F)(F)F)C(F)(F)F yielded an activity coefficient of 1.39 ± 0.09.
Compound `CCCCCCCCC` [nonane] + CCCC[n+]1ccc(C)cc1.O=S(=O)([N-]S(=O)(=O)C(F)(F)F)C(F)(F)F has an activity coefficient of 35.5 ± 2.4.

Same assay, conditions: 318.15 K; 101 kPa; Liquid; Chromatography; x1 = 0
In the case of `Cc1ccccc1C` [1,2-dimethylbenzene] + CCCC[n+]1ccc(C)cc1.O=S(=O)([N-]S(=O)(=O)C(F)(F)F)C(F)(F)F, the activity coefficient is reported as 1.21 ± 0.08.
Work on `Cc1cccc(C)c1` [1,3-dimethylbenzene] + CCCC[n+]1ccc(C)cc1.O=S(=O)([N-]S(=O)(=O)C(F)(F)F)C(F)(F)F yielded an activity coefficient of 1.35 ± 0.09.
With `Cc1ccc(C)cc1` [1,4-dimethylbenzene] + CCCC[n+]1ccc(C)cc1.O=S(=O)([N-]S(=O)(=O)C(F)(F)F)C(F)(F)F the activity coefficient was 1.35 ± 0.09.
`C=CCCCCC` [1-heptene] + CCCC[n+]1ccc(C)cc1.O=S(=O)([N-]S(=O)(=O)C(F)(F)F)C(F)(F)F gave an activity coefficient of 9.17 ± 0.63.
With `C#CCCCCC` [1-heptyne] + CCCC[n+]1ccc(C)cc1.O=S(=O)([N-]S(=O)(=O)C(F)(F)F)C(F)(F)F the activity coefficient was 3.24 ± 0.22.
With `C#CCCCC` [1-hexyne] + CCCC[n+]1ccc(C)cc1.O=S(=O)([N-]S(=O)(=O)C(F)(F)F)C(F)(F)F the activity coefficient was 2.42 ± 0.16.
In the case of `C#CCCCCCC` [1-octyne] + CCCC[n+]1ccc(C)cc1.O=S(=O)([N-]S(=O)(=O)C(F)(F)F)C(F)(F)F, the activity coefficient is reported as 4.4 ± 0.3.

Source: the NIST ThermoML archive (doi:10.1016/j.jct.2009.06.011)
